{"source": "patent US10160780B2", "about": "“Compound extracted from husk and fruit stem of Xanthoceras sobifolia and its extracting method and use thereof” (priority 2004, dated 2018)", "key": {"[1]": {"test_system": "BGC-823 human gastric cancer", "experiment": "anti-tumor activity in vitro, SRB", "assay_type": "cell-based", "details": "BGC-823, SRB", "source_text": "(§1) Take Xanthoceraside derived from the example 3 to do a test on tumor cell in vitro."}, "[2]": {"test_system": "PC-3MIE8 human prostate cancer", "experiment": "anti-tumor activity in vitro, SRB", "assay_type": "cell-based", "details": "PC-3MIE8, SRB", "source_text": "as §1"}, "[3]": {"test_system": "MDA-MB-435 human breast cancer", "experiment": "anti-tumor activity in vitro, SRB", "assay_type": "cell-based", "details": "MDA-MB-435, SRB", "source_text": "as §1"}, "[4]": {"test_system": "Bel-7402 human liver cancer", "experiment": "anti-tumor activity in vitro, SRB", "assay_type": "cell-based", "details": "Bel-7402, SRB", "source_text": "as §1"}, "Hela cervical cancer": {"test_system": "Hela cervical cancer", "experiment": "anti-tumor activity in vitro, SRB", "assay_type": "cell-based, human", "source_text": "as §1"}, "mice [5]": {"test_system": "mice", "experiment": "Y maze test of learning and memory ability of mice", "assay_type": "in vivo", "details": "fed 9 mg/kg, Y maze after 40 minutes, incorrect alternations before 10 continuous correct choices", "description": "20 female and male mice weighted 18˜23 g were selected and divided evenly into two groups. The treatment group was fed with total dose of Xanthoceraside at the ratio of 9 mg/kg mice weight, and the control group was fed with the same amount of normal saline. After 40 minutes, they were put into Y maze respectively for performance observation. The number of incorrect alternations for a mice were recorded before it made correct choices continuously for 10 times. If errors more than 30, cutting the value to 30."}, "mice [6]": {"test_system": "mice", "experiment": "Y maze test, memory retrieval impairment of mice induced by scopolamine", "assay_type": "in vivo", "details": "scopolamine 2.0 mg/kg, then injection 6 mg/kg, Y maze after 20 minutes", "description": "Mice were trained based on the stochastic three arms Y maze test, to screen those who had less than 30 errors of alternation before they continuously made correct choices for 10 times. After relaxed for 24 hours, the selected ones were randomized into two groups and for all of them scopolamine was injected into celiac at the ratio of 2.0 mg/kg mice weight to cause their learning and memory impairment. After 15 minutes, the mice in the treatment group were given an injection of total dose of Xanthoceraside at ratio of 6 mg/kg mice weight, while those in the control group were given an injection of the same amount of normal saline. After 20 minutes, they were arranged respectively into Y maze and the number of incorrect alternations before they made correct choices continuously for 10 times."}, "HL-60 human leukemia": {"test_system": "HL-60 human leukemia", "experiment": "anti-tumor activity in vitro, MTT", "assay_type": "cell-based", "source_text": "as §1"}, "mice [7]": {"test_system": "mice", "experiment": "regular static hypoxia tolerance in an isolated environment (death time)", "assay_type": "in vivo", "details": "oral 2 mg twice a day for 6 days", "description": "The above obtained Xanthoceraside was for the test of regular static hypoxia tolerance in an isolated environment to observe the effect of Xanthoceraside on death time of animals.\nThe test consisted of two sections. Each section was divided into two groups: control and treatment. There were three measurements to calculate death time of the mice. Those in treatment group took oral dosing of 2 mg of Xanthoceraside twice a day for 6 days. The three parameters are: • The average death time of whole group (xt); • The super average death time (xp): based on the average death time of the control group (xc), calculate the death time (xp), which is greater than the control group (xc), and calculate the mean. • The delayed death time (xp-xc): the super average death time (xp) minus the control group (xc) and calculated the mean."}}, "note": "Where two headings read alike, the source gives them in different places."}
{"smiles": "C/C=C(/C)C(=O)O[C@H]1[C@H](OC(=O)/C(C)=C\\C)C2(CO)C(CC1(C)C)C1=CCC3[C@@]4(C)CC[C@H](OC5OC(C(=O)O)C(O)C(OC6OC(CO)C(O)C6O)C5OC5OC(CO)C(O)C(O)C5O)C(C)(C)C4CC[C@@]3(C)[C@]1(C)[C@@H](O)[C@H]2O", "note": "(stereo partly drawn) [Xanthoceraside, 3-O-(α-L-arabinofuranosyl(1→3)-β-D-galactopyranosyl(1→2))-β-D-glucuronopyranosyl-21,22-diangeloyl-R1-barrigenol]", "values": [{"measurement": "Inhibition ratio (%)", "setting": "[1]; 0.5 μg/ml", "value": "−11.71", "unit": "%"}, {"measurement": "Inhibition ratio (%)", "setting": "[1]; 5.0 μg/ml", "value": "−5.92", "unit": "%"}, {"measurement": "Inhibition ratio (%)", "setting": "[1]; 50.0 μg/ml", "value": 92.45, "unit": "%"}, {"measurement": "IC50", "setting": "[1]; Homo sapiens", "value": 40.2, "unit": "µg/mL"}, {"measurement": "IC50", "setting": "[2]; Homo sapiens", "value": 41, "unit": "µg/mL"}, {"measurement": "Inhibition ratio (%)", "setting": "[2]; 0.5 μg/ml", "value": "−13.90", "unit": "%"}, {"measurement": "Inhibition ratio (%)", "setting": "[2]; 5.0 μg/ml", "value": "−7.63", "unit": "%"}, {"measurement": "Inhibition ratio (%)", "setting": "[2]; 50.0 μg/ml", "value": 92.03, "unit": "%"}, {"measurement": "IC50", "setting": "[3]; Homo sapiens", "value": 18.6, "unit": "µg/mL"}, {"measurement": "Inhibition ratio (%)", "setting": "[3]; 0.5 μg/ml", "value": "−4.50", "unit": "%"}, {"measurement": "Inhibition ratio (%)", "setting": "[3]; 5.0 μg/ml", "value": 2.92, "unit": "%"}, {"measurement": "Inhibition ratio (%)", "setting": "[3]; 50.0 μg/ml", "value": 93.14, "unit": "%"}, {"measurement": "Inhibition ratio (%)", "setting": "[4]; 0.5 μg/ml", "value": "−9.78", "unit": "%"}, {"measurement": "Inhibition ratio (%)", "setting": "[4]; 5.0 μg/ml", "value": "−1.24", "unit": "%"}, {"measurement": "Inhibition ratio (%)", "setting": "[4]; 50.0 μg/ml", "value": 92.96, "unit": "%"}, {"measurement": "IC50", "setting": "[4]; Homo sapiens", "value": 39.3, "unit": "µg/mL"}, {"measurement": "Inhibition ratio (%)", "setting": "Hela cervical cancer; 0.5 μg/ml", "value": "−12.72", "unit": "%"}, {"measurement": "Inhibition ratio (%)", "setting": "Hela cervical cancer; 5.0 μg/ml", "value": "−4.05", "unit": "%"}, {"measurement": "Inhibition ratio (%)", "setting": "Hela cervical cancer; 50.0 μg/ml", "value": 95.49, "unit": "%"}, {"measurement": "IC50", "setting": "Hela cervical cancer; Homo sapiens", "value": 34.2, "unit": "µg/mL"}, {"measurement": "Error frequency (X ± SD)", "setting": "mice [5]", "value": "6.9 ± 2.3"}, {"measurement": "Error frequency (X ± SD)", "setting": "mice [6]", "value": "4.0 ± 1.5"}, {"measurement": "IC50", "setting": "HL-60 human leukemia; HL-60, MTT", "value": 41.29, "unit": "µg/mL"}, {"measurement": "Inhibition ratio (%)", "setting": "HL-60 human leukemia; HL-60, MTT, 0.5 μg/ml", "value": 9.34, "unit": "%"}, {"measurement": "Inhibition ratio (%)", "setting": "HL-60 human leukemia; HL-60, MTT, 5.0 μg/ml", "value": 17.68, "unit": "%"}, {"measurement": "Inhibition ratio (%)", "setting": "HL-60 human leukemia; HL-60, MTT, 50.0 μg/ml", "value": 56.90, "unit": "%"}, {"measurement": "IC50", "setting": "HL-60 human leukemia; Homo sapiens, HL-60, HL-60, MTT, read-out: IC50", "value": 41.9, "unit": "µg/mL"}, {"measurement": "xp − xc, delayed death time", "setting": "mice [7]; First section", "value": "14.59 ± 14.83(17) min"}, {"measurement": "xp, super average death time", "setting": "mice [7]; First section", "value": "56.51 ± 14.59(17) min"}, {"measurement": "xt, average death time of whole group", "setting": "mice [7]; First section", "value": "41.84 ± 15.35(30) min"}, {"measurement": "xp − xc, delayed death time", "setting": "mice [7]; Second section", "value": "8.40 ± 4.94(33) min"}, {"measurement": "xp, super average death time", "setting": "mice [7]; Second section", "value": "33.40 ± 4.94(33) min"}, {"measurement": "xt, average death time of whole group", "setting": "mice [7]; Second section", "value": "31.55 ± 6.68(41) min"}]}
